This passage reports GI50 and TGI results from PubChem BioAssay (NCI).

Some test systems named below: LOX IMVI melanoma; M14 melanoma; NCI-H522 lung; HL-60(TB) leukemia; UACC-62 melanoma; OVCAR-5 ovarian; OVCAR-3 ovarian; EKVX NSCLC; SK-MEL-28 melanoma; ACHN renal.
What all share (test): inhibition of tumour cell growth, NCI panel, 48 h

Where “and” joins values, the source holds several entries; their conditions need not be identical. Equal entries are not always repeated.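 Interpolation was linear, between the two tested concentrations surrounding the appropriate level; five concentrations were tested over 48 hours in 96-well plates. GI50 marks 50% less growth. TGI is the concentration that stops growth completely.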

For the compound `CCn1cc(C2NC(=O)c3cc(F)ccc3N2)c2cccc(Cl)c21` (stereo unspecified), the GI50 with LOX IMVI melanoma is 0.374 µM; in the assay on M14 melanoma, 0.138 µM; with NCI-H522 lung it was 0.135 µM; in the assay with HL-60(TB) leukemia, 0.121 µM; in the assay on UACC-62 melanoma it was 0.0843 µM; with OVCAR-5 ovarian it was 0.503 µM. Also, the GI50 is 0.1 µM with OVCAR-3 ovarian, 0.461 µM in the assay with EKVX NSCLC, 0.847 µM with SK-MEL-28 melanoma and 0.606 µM in the assay with ACHN renal. Moreover, the TGI was over 100 µM in the assay on LOX IMVI melanoma; over 100 µM in the assay on M14 melanoma; over 32.1 µM in the assay on NCI-H522 lung; 0.731 µM in the assay on HL-60(TB) leukemia; over 61.9 µM in the assay on UACC-62 melanoma; over 100 µM in the assay on OVCAR-5 ovarian. In addition, the TGI in the assay with OVCAR-3 ovarian is 0.596 µM; in the assay with EKVX NSCLC, over 100 µM; in the assay with SK-MEL-28 melanoma it was over 100 µM; in the assay on ACHN renal, over 100 µM.

Take `O=C1C=Cc2noc3cccc1c23`: the TGI with LOX IMVI melanoma was 9.51 µM; in the assay on M14 melanoma, 23.2 µM; in the assay on NCI-H522 lung, 3.04 µM; with HL-60(TB) leukemia it was 3.67 µM; in the assay with UACC-62 melanoma it was 13.4 µM; in the assay on OVCAR-5 ovarian it was 28.4 µM. In addition, the TGI with OVCAR-3 ovarian turned out to be 10.9 µM; with EKVX NSCLC, 10.2 µM; with SK-MEL-28 melanoma it was 17.6 µM; in the assay with ACHN renal, 7.85 µM.

On to `Cn1cc(/C=C2\C(=O)Nc3cccnc32)c2ccccc21`, for which the GI50 was 7.77 µM in the assay on LOX IMVI melanoma; 9.32 µM in the assay on M14 melanoma; 14.7 µM with NCI-H522 lung; over 22.5 µM with HL-60(TB) leukemia; 8.82 µM in the assay on UACC-62 melanoma; over 25 µM with OVCAR-5 ovarian. Further, the GI50 with OVCAR-3 ovarian is over 22.5 µM; in the assay on EKVX NSCLC it was 11.1 µM; with SK-MEL-28 melanoma, over 25 µM; with ACHN renal, 11.5 µM. The TGI in the assay with LOX IMVI melanoma, with M14 melanoma, in the assay on NCI-H522 lung, in the assay on HL-60(TB) leukemia, with UACC-62 melanoma and in the assay with OVCAR-5 ovarian was over 25 µM in each case. In addition, the TGI with OVCAR-3 ovarian, in the assay on EKVX NSCLC, in the assay with SK-MEL-28 melanoma and in the assay with ACHN renal was over 25 µM in each case.

Consider `Cc1cc(I)cc(CN(C)CCCCN2CCCC2)c1O`, for which the GI50 in the assay with LOX IMVI melanoma is 15.5 µM; with M14 melanoma, 15.1 µM; with NCI-H522 lung it was 22.4 µM; with HL-60(TB) leukemia it was 16 µM; in the assay with UACC-62 melanoma it was 4.19 µM; with OVCAR-5 ovarian it was 27.6 µM. Moreover, the GI50 with OVCAR-3 ovarian was 33.5 µM; in the assay on EKVX NSCLC, 34.8 µM; with SK-MEL-28 melanoma it was 13.4 µM; in the assay with ACHN renal, 36.8 µM. Moreover, the TGI was 30.8 µM in the assay with LOX IMVI melanoma; 29.1 µM with M14 melanoma; 46.2 µM in the assay on NCI-H522 lung; 35.2 µM in the assay with HL-60(TB) leukemia; 15.7 µM with UACC-62 melanoma; over 100 µM in the assay on OVCAR-5 ovarian. Further, the TGI in the assay on OVCAR-3 ovarian is over 100 µM; with EKVX NSCLC, over 100 µM; in the assay on SK-MEL-28 melanoma, 27.8 µM; in the assay with ACHN renal it was over 100 µM.

Regarding `OCC1CC2CC1C1(C2)OCCO1` (stereo unspecified), the TGI in the assay with LOX IMVI melanoma, in the assay on M14 melanoma, with NCI-H522 lung, in the assay with HL-60(TB) leukemia, with UACC-62 melanoma and in the assay with OVCAR-5 ovarian was over 100 µM throughout. Besides, the TGI in the assay with OVCAR-3 ovarian, in the assay on EKVX NSCLC, in the assay on SK-MEL-28 melanoma and in the assay with ACHN renal was over 100 µM in each case.

For the compound `O=C(O)CNS(=O)(=O)c1ccc(NC(=O)c2cccc([N+](=O)[O-])c2)cc1`, the TGI in the assay on LOX IMVI melanoma, with M14 melanoma, with NCI-H522 lung, in the assay with HL-60(TB) leukemia, in the assay with UACC-62 melanoma and in the assay on OVCAR-5 ovarian was over 100 µM each time. The TGI in the assay on OVCAR-3 ovarian, in the assay on EKVX NSCLC, with SK-MEL-28 melanoma and in the assay with ACHN renal was over 100 µM throughout.

As for `COc1ccc(C2CC(C)=Nc3c([nH]c(=S)[nH]c3=O)N2)cc1` (stereo unspecified), the TGI with LOX IMVI melanoma is 34.4 µM; in the assay on M14 melanoma it was 37.4 µM; in the assay on NCI-H522 lung, 30.1 µM; with HL-60(TB) leukemia it was 40.1 µM; with UACC-62 melanoma it was 32.1 µM; with OVCAR-5 ovarian it was 56.7 µM. The TGI in the assay with OVCAR-3 ovarian came out at 55.2 µM; in the assay with EKVX NSCLC, 50.2 µM; in the assay with SK-MEL-28 melanoma, 60.5 µM; in the assay with ACHN renal it was 36.1 µM.

Regarding `C1CCN2CC34CC(CC5CCCN(C6CCCC3N6)C54)C2C1` (stereo unspecified), the TGI in the assay with LOX IMVI melanoma, in the assay on M14 melanoma, in the assay with NCI-H522 lung, in the assay on HL-60(TB) leukemia, in the assay with UACC-62 melanoma and with OVCAR-5 ovarian was over 100 µM throughout. Further, the TGI with OVCAR-3 ovarian, in the assay with EKVX NSCLC, in the assay with SK-MEL-28 melanoma and in the assay with ACHN renal was over 100 µM each time.

Take `CCCC/C(C)=N/NC(N)=S`: the TGI in the assay with LOX IMVI melanoma, in the assay on M14 melanoma, in the assay with NCI-H522 lung, in the assay on HL-60(TB) leukemia, with UACC-62 melanoma and in the assay on OVCAR-5 ovarian was over 100 µM each time. Also, the TGI with OVCAR-3 ovarian, in the assay with EKVX NSCLC, in the assay on SK-MEL-28 melanoma and in the assay with ACHN renal was over 100 µM each time.

With `Cc1cc(C#Cc2ccccc2)ccc1-n1c(/C=C/c2ccc(O)cc2)nc2ccccc2c1=O`, the GI50 in the assay on LOX IMVI melanoma is 2.78 µM; in the assay on M14 melanoma it was 3.56 µM; in the assay with NCI-H522 lung it was 2.26 µM; with HL-60(TB) leukemia, 1.66 µM; with UACC-62 melanoma it was 3.48 µM; in the assay with OVCAR-5 ovarian, 4.59 µM. Moreover, the GI50 is 3.6 µM in the assay on OVCAR-3 ovarian, 2.43 µM in the assay on EKVX NSCLC, 4.54 µM in the assay on SK-MEL-28 melanoma and 2.46 µM in the assay with ACHN renal. Also, the TGI in the assay on LOX IMVI melanoma was 10.8 µM; with M14 melanoma, 15.1 µM; in the assay with NCI-H522 lung it was 27.3 µM; in the assay with HL-60(TB) leukemia it was 4.69 µM; in the assay on UACC-62 melanoma, 21.7 µM; with OVCAR-5 ovarian, 94.7 µM. The TGI with OVCAR-3 ovarian is 25.7 µM; with EKVX NSCLC, over 100 µM; in the assay on SK-MEL-28 melanoma, over 100 µM; with ACHN renal, 8.52 µM.

Regarding `Cc1ccc(S(=O)(=O)ON=C2CC(c3ccccc3)N(C)C(c3ccccc3)C2)cc1` (stereo unspecified), the TGI in the assay on LOX IMVI melanoma was 27.5 µM and 26.9 µM; in the assay with M14 melanoma, 34.9 µM and 43.8 µM; with NCI-H522 lung it was 27.4 µM and 25.2 µM; in the assay on HL-60(TB) leukemia, over 100 µM; in the assay on UACC-62 melanoma, 31.1 µM; in the assay with OVCAR-5 ovarian it was 92.6 µM. Besides, the TGI in the assay with OVCAR-3 ovarian was 47.8 µM and 49.4 µM; in the assay on EKVX NSCLC, over 100 µM; with SK-MEL-28 melanoma it was 54.3 µM and 49 µM; in the assay on ACHN renal it was 50.7 µM. In addition, in the assay with HL-60(TB) leukemia, the GI50 was 7.25 µM and 19.9 µM.
